We go through 7 compounds from ChEMBL document CHEMBL1141677, “Synthesis and structure-antibacterial activity of triazolyl oxazolidinones containing long chain acyl moiety” (2008).

Assay type in all cases: functional
The subject of test [1] is Staphylococcus aureus. In words: Antibacterial activity against Staphylococcus aureus ATCC 25923 after 18 hrs by agar dilution method. The settings on record: for MIC: Staphylococcus aureus, ATCC 25923, 18 h.
Test [2] deals with Staphylococcus aureus. As to the kind of experiment: Antibacterial activity against Staphylococcus aureus ATCC 25923 after 18 hrs by agar dilution method in presence of 50% human plasma. The settings on record: ATCC 25923, Plasma.
The next test deals with Haemophilus influenzae. As to the kind of experiment: Antibacterial activity against Haemophilus influenzae clinical isolate after 18 hrs by agar dilution method.
A further test relates to Streptococcus pneumoniae. As to the kind of experiment: Antibacterial activity against penicillin-resistant Streptococcus pneumoniae after 18 hrs by agar dilution method.
Test [3] has as its system Staphylococcus aureus. As to the kind of experiment: Antibacterial activity against methicillin-susceptible Staphylococcus aureus clinical isolate after 18 hrs by agar dilution method.
Test [4] has as its system Enterococcus. As to the kind of experiment: Antibacterial activity against vancomycin-sensitive Enterococcus after 18 hrs by agar dilution method.
For test [5], the system named is Staphylococcus. As to the kind of experiment: Antibacterial activity against methicillin-susceptible coagulase-negative Staphylococcus clinical isolate after 18 hrs by agar dilution method.
Another test has as its system Escherichia coli. In words: Antibacterial activity against Escherichia coli ATCC 25922 after 18 hrs by agar dilution method. The settings on record: ATCC 25922, 18 h.
Another test relates to Moraxella catarrhalis. As to the kind of experiment: Antibacterial activity against Moraxella catarrhalis clinical isolate after 18 hrs by agar dilution method.
Test [6] concerns Staphylococcus aureus. In words: Antibacterial activity against methicillin-resistant Staphylococcus aureus clinical isolate after 18 hrs by agar dilution method. The settings on record: Staphylococcus aureus, 18 h.
Test [7] concerns Enterococcus. In words: Antibacterial activity against vancomycin-resistant Enterococcus after 18 hrs by agar dilution method.
Test [8] concerns Staphylococcus. In words: Antibacterial activity against methicillin-resistant coagulase-negative Staphylococcus clinical isolate after 18 hrs by agar dilution method.

In brackets after ≈: the same amount, converted by molar mass.

With `CCCCCCCCCCC(=O)N1CCN(c2ccc(N3C[C@H](Cn4ccnn4)OC3=O)cc2F)CC1`, the “-logMIC” value in the test with Staphylococcus aureus [1] is 1.51. Also, the MIC against Staphylococcus aureus [1] is above 16 µg/mL; with Staphylococcus aureus [2], above 16 µg/mL; in the test with Haemophilus influenzae it was at least 8 µg/mL; in the test on Streptococcus pneumoniae, above 16 µg/mL; against Staphylococcus aureus [3], above 16 µg/mL; in the test on Enterococcus [4], above 16 µg/mL. Also, the MIC against Staphylococcus [5] was above 16 µg/mL; against Escherichia coli, at least 8 µg/mL; with Moraxella catarrhalis, at least 8 µg/mL.

`CCCCCCCCCCCCCCCCCC(=O)N1CCN(c2ccc(N3C[C@H](Cn4ccnn4)OC3=O)cc2F)CC1`: in the test on Staphylococcus aureus [1], the “-logMIC” value is listed as 1.58. For the same compound, the MIC against Staphylococcus aureus [1] is above 16 µg/mL; in the test on Staphylococcus aureus [2], above 16 µg/mL; with Haemophilus influenzae, at least 8 µg/mL; against Streptococcus pneumoniae, above 16 µg/mL; in the test with Staphylococcus aureus [3], above 16 µg/mL; in the test with Enterococcus [4] it was above 16 µg/mL. Also, the MIC with Staphylococcus [5] is above 16 µg/mL; in the test with Escherichia coli it was at least 8 µg/mL; in the test on Moraxella catarrhalis it was at least 8 µg/mL.

For `CCCCCCCCCCCCCCCC(=O)N1CCN(c2ccc(N3C[C@H](Cn4ccnn4)OC3=O)cc2F)CC1`, the “-logMIC” value with Staphylococcus aureus [1] is 1.56. Moreover, the MIC in the test on Staphylococcus aureus [1] is above 16 µg/mL; in the test on Staphylococcus aureus [2], above 16 µg/mL; in the test on Haemophilus influenzae, at least 8 µg/mL; against Streptococcus pneumoniae, above 16 µg/mL; with Staphylococcus aureus [3], above 16 µg/mL; against Enterococcus [4] it was above 16 µg/mL. Besides, the figures for the MIC in the test with Staphylococcus [5], with Escherichia coli and in the test on Moraxella catarrhalis were above 16 µg/mL, at least 8 µg/mL and at least 8 µg/mL, respectively.

With `CCCCCCCCCC(=O)N1CCN(c2ccc(N3C[C@H](Cn4ccnn4)OC3=O)cc2F)CC1`, the “-logMIC” value in the test with Staphylococcus aureus [1] was 1.5. For the same compound, the MIC was above 16 µg/mL against Staphylococcus aureus [1]; above 16 µg/mL with Staphylococcus aureus [2]; at least 8 µg/mL in the test on Haemophilus influenzae; above 16 µg/mL against Streptococcus pneumoniae; above 16 µg/mL against Staphylococcus aureus [3]; above 16 µg/mL against Enterococcus [4]. Also, the values for the MIC in the test on Staphylococcus [5], with Escherichia coli and in the test on Moraxella catarrhalis were above 16 µg/mL, at least 8 µg/mL and at least 8 µg/mL, respectively.

Turning to `CCCCCCCCCCCCCC(=O)N1CCN(c2ccc(N3C[C@H](Cn4ccnn4)OC3=O)cc2F)CC1`, in the test with Staphylococcus aureus [1], the “-logMIC” value amounted to 1.54. In addition, the MIC was above 16 µg/mL with Staphylococcus aureus [1]; above 16 µg/mL in the test with Staphylococcus aureus [2]; at least 8 µg/mL with Haemophilus influenzae; above 16 µg/mL against Streptococcus pneumoniae; above 16 µg/mL against Staphylococcus aureus [3]; above 16 µg/mL in the test on Enterococcus [4]. Also, the MIC was above 16 µg/mL in the test on Staphylococcus [5], at least 8 µg/mL against Escherichia coli and at least 8 µg/mL in the test with Moraxella catarrhalis.

On to `CC(=O)NC[C@H]1CN(c2ccc(N3CCOCC3)c(F)c2)C(=O)O1` [LINEZOLID], for which the MIC is at least 8 µg/mL in the test with Haemophilus influenzae; 0.5 µg/mL (≈ 1.48 µM) in the test on Staphylococcus aureus [6]; 1 µg/mL (≈ 2.96 µM) in the test with Staphylococcus aureus [3]; 0.5 µg/mL (≈ 1.48 µM) against Enterococcus [4]; 0.25 µg/mL (≈ 0.741 µM) in the test with Staphylococcus [5]; at least 8 µg/mL in the test on Escherichia coli. Also, the MIC was 2 µg/mL (≈ 5.93 µM) against Enterococcus [7], 1 µg/mL (≈ 2.96 µM) with Staphylococcus [8] and at least 8 µg/mL with Moraxella catarrhalis.

Consider `CN[C@H](CC(C)C)C(=O)N[C@H]1C(=O)N[C@@H](CC(N)=O)C(=O)N[C@H]2C(=O)N[C@H]3C(=O)N[C@H](C(=O)N[C@H](C(=O)O)c4cc(O)cc(O)c4-c4cc3ccc4O)[C@H](O)c3ccc(c(Cl)c3)Oc3cc2cc(c3O[C@@H]2O[C@H](CO)[C@@H](O)[C@H](O)[C@H]2O[C@H]2C[C@](C)(N)[C@H](O)[C@H](C)O2)Oc2ccc(cc2Cl)[C@H]1O` [VANCOMYCIN], for which the MIC is at least 8 µg/mL in the test on Haemophilus influenzae; 0.5 µg/mL (≈ 0.345 µM) in the test with Streptococcus pneumoniae; 0.25 µg/mL (≈ 0.173 µM) against Enterococcus [4]; 1 µg/mL (≈ 0.69 µM) with Staphylococcus [5]; at least 8 µg/mL with Escherichia coli; above 64 µg/mL in the test on Enterococcus [7]. Moreover, the values for the MIC in the test with Staphylococcus [8] and against Moraxella catarrhalis were 1 µg/mL (≈ 0.69 µM) and at least 8 µg/mL, respectively.
